We go through six molecules from patent US20260306644A1, “ANTIBODY RECRUITING MOLECULES FOR THE TREATMENT OF CORONAVIRUS DISEASE-19” (priority 2023, published 2026).

“And” between values parts separate entries of the source, which are not always exact repeats. Equal values may be shown once.

A word on the IC50: it is the concentration needed to halve the response being measured. A higher IC50 goes with a need for much substance. A word on the EC50: it is the midpoint of the concentration-response curve.

Test [1] deals with T1, SARS-CoV-2 Spike A (wild-type) (Severe acute respiratory syndrome coronavirus 2, UniProt P0DTC2).
T1 construct: purchased Meso Scale Diagnostics, LLC V-PLEX SARS-CoV-2 Panel 13 (ACE2) Kit / Panel 23 (ACE2) Kit
The experiment in a line: MSD ACE2 competition assay (inhibition of Spike binding with ACE2, ECL), A (wild-type). Particulars: IC50 Wild Type, Wild Type Spike.

The target of another test is SARS-CoV-2 Spike protein (Severe acute respiratory syndrome coronavirus 2, UniProt P0DTC2). The test is described as follows: Ternary binding of SARS-CoV-2 Spike protein (293T cells expressing Spike-GFP, IgG-AF647, flow cytometry). In kind it is cell-based. Conditions: 293T cells expressing Spike-GFP; IgG-AF647 10 μg/ml; repeat values/batches listed separately; read-out: SARS-CoV-2 Ternary binding EC50. On the procedure: 293T cells stably expressing SARS-CoV-2 Spike-GFP protein on their surface were incubated with a concentration range of compound for 30 minutes at 37° C.-5% CO2 in Roswell Park Memorial Institute Medium (RPMI)-5% low IgG serum with 10 μg/ml IgG-Alexa Fluor® 647 (AF647). The cells were washed twice using the same medium, resuspended in phosphate-buffered saline (PBS)-1% bovine serum albumin (BSA), and acquired on Attune™ NxT Flow Cytometer. In some embodiments, mean fluorescence intensity of AF647 as well as […] AF647 positive in GFP positive gate are reported as readouts in this assay.
A general note: In flow cytometry, cells or beads pass a laser one at a time.

In test [1], `CC[C@H](C)[C@H](NC(=O)[C@H](CC(C)C)NC(=O)[C@H](CC(=O)O)NC(=O)[C@H](CO)NC(=O)[C@@H](NC(=O)[C@H](CCCNC(=N)N)NC(=O)[C@H](CCSC)NC(=O)[C@H](CO)NC(=O)[C@H](C)NC(=O)[C@H](CCC(=O)O)NC(=O)[C@H](C)NC(=O)[C@H](Cc1c[nH]cn1)NC(=O)CNC(=O)[C@H](CC(C)C)NC(=O)[C@H](CCC(=O)O)NC(=O)[C@H](CC(=O)O)NC(=O)[C@H](CC(C)C)NC(=O)[C@H](CC(C)C)NC(=O)[C@H](CCCNC(=N)N)NC(=O)[C@H](CCSC)NC(=O)[C@@H](NC(=O)[C@H](CCC(=O)O)NC(=O)[C@H](Cc1ccc(O)cc1)NC(=O)[C@@H](NC(=O)[C@H](CCCCN)NC(=O)[C@H](CCC(N)=O)NC(=O)[C@H](CC(C)C)NC(=O)[C@@H](NC(=O)[C@H](Cc1c[nH]c2ccccc12)NC(=O)[C@H](CCC(=O)O)NC(=O)[C@H](CCCCN)NC(=O)[C@H](CC(=O)O)NC(C)=O)[C@@H](C)CC)[C@@H](C)CC)[C@@H](C)CC)C(C)C)C(=O)N[C@@H](Cc1ccc(O)cc1)C(=O)N[C@@H](CCC(=O)O)C(=O)N[C@@H](Cc1ccccc1)C(=O)N[C@@H](CCSC)C(=O)N[C@@H](CCCCN)C(=O)N[C@@H](CCCCN)C(=O)NCC(=O)O` [Compound 103] had an IC50 of 6.22 nM. Further, the EC50 on SARS-CoV-2 Spike protein is over 10 nM.

For the molecule `CC[C@H](C)[C@H](NC(=O)[C@H](CC(C)C)NC(=O)[C@H](CC(=O)O)NC(=O)[C@H](CO)NC(=O)[C@@H](NC(=O)[C@H](CCCNC(=N)N)NC(=O)[C@H](CCSC)NC(=O)[C@H](CO)NC(=O)[C@H](C)NC(=O)[C@H](CCC(=O)O)NC(=O)[C@H](C)NC(=O)[C@H](Cc1c[nH]cn1)NC(=O)CNC(=O)[C@H](CC(C)C)NC(=O)[C@H](CCC(=O)O)NC(=O)[C@H](CC(=O)O)NC(=O)[C@H](CC(C)C)NC(=O)[C@H](CC(C)C)NC(=O)[C@H](CCCNC(=N)N)NC(=O)[C@H](CCSC)NC(=O)[C@@H](NC(=O)[C@H](CCC(=O)O)NC(=O)[C@H](Cc1ccc(O)cc1)NC(=O)[C@@H](NC(=O)[C@H](CCCCN)NC(=O)[C@H](CCC(N)=O)NC(=O)[C@H](CC(C)C)NC(=O)[C@@H](NC(=O)[C@H](Cc1c[nH]c2ccccc12)NC(=O)[C@H](CCC(=O)O)NC(=O)[C@H](CCCCN)NC(=O)[C@@H](N)CC(=O)O)[C@@H](C)CC)[C@@H](C)CC)[C@@H](C)CC)C(C)C)C(=O)N[C@@H](Cc1ccc(O)cc1)C(=O)N[C@@H](CCC(=O)O)C(=O)N[C@@H](Cc1ccccc1)C(=O)N[C@@H](CCSC)C(=O)N[C@@H](CCCCN)C(=O)N[C@@H](CCCCN)C(=O)NCC(=O)NCC(=O)NCC(=O)NCC(=O)N[C@@H](CC(=O)O)C(=O)N[C@H]1CSSC[C@@H](C(=O)N[C@H](C(=O)O)[C@@H](C)O)NC(=O)[C@H](Cc2c[nH]c3ccccc23)NC(=O)[C@H](C(C)C)NC(=O)[C@H](CC(C)C)NC(=O)[C@H](CCC(=O)O)NC(=O)CNC(=O)[C@H](CC(C)C)NC(=O)[C@H](Cc2c[nH]cn2)NC(=O)[C@H](Cc2c[nH]c3ccccc23)NC(=O)[C@H](C)NC1=O` [Compound 106], in test [1], the IC50 was 22.1 nM. Besides, the EC50 on SARS-CoV-2 Spike protein was 2.6 nM and 2.5 nM.

In turn, `CC[C@H](C)[C@H](NC(=O)[C@H](CC(C)C)NC(=O)[C@H](CC(=O)O)NC(=O)[C@H](CO)NC(=O)[C@@H](NC(=O)[C@H](CCCNC(=N)N)NC(=O)[C@H](CCSC)NC(=O)[C@H](CO)NC(=O)[C@H](C)NC(=O)[C@H](CCC(=O)O)NC(=O)[C@H](C)NC(=O)[C@H](Cc1c[nH]cn1)NC(=O)CNC(=O)[C@H](CC(C)C)NC(=O)[C@H](CCC(=O)O)NC(=O)[C@H](CC(=O)O)NC(=O)[C@H](CC(C)C)NC(=O)[C@H](CC(C)C)NC(=O)[C@H](CCCNC(=N)N)NC(=O)[C@H](CCSC)NC(=O)[C@@H](NC(=O)[C@H](CCC(=O)O)NC(=O)[C@H](Cc1ccc(O)cc1)NC(=O)[C@@H](NC(=O)[C@H](CCCCN)NC(=O)[C@H](CCC(N)=O)NC(=O)[C@H](CC(C)C)NC(=O)[C@@H](NC(=O)[C@H](Cc1c[nH]c2ccccc12)NC(=O)[C@H](CCC(=O)O)NC(=O)[C@H](CCCCN)NC(=O)[C@H](CC(=O)O)NC(C)=O)[C@@H](C)CC)[C@@H](C)CC)[C@@H](C)CC)C(C)C)C(=O)N[C@@H](Cc1ccc(O)cc1)C(=O)N[C@@H](CCC(=O)O)C(=O)N[C@@H](Cc1ccccc1)C(=O)N[C@@H](CCSC)C(=O)N[C@@H](CCCCN)C(=O)N[C@@H](CCCCN)C(=O)NCC(=O)NCC(=O)NCC(=O)NCC(=O)N[C@@H](CC(=O)O)C(=O)N[C@H]1CSSC[C@@H](C(=O)N[C@H](C(=O)O)[C@@H](C)O)NC(=O)[C@H](Cc2c[nH]c3ccccc23)NC(=O)[C@H](C(C)C)NC(=O)[C@H](CC(C)C)NC(=O)[C@H](CCC(=O)O)NC(=O)CNC(=O)[C@H](CC(C)C)NC(=O)[C@H](Cc2c[nH]cn2)NC(=O)[C@H](Cc2c[nH]c3ccccc23)NC(=O)[C@H](C)NC1=O` [Compound 107] had an IC50 in test [1] of 36.2 nM. Also, the EC50 on SARS-CoV-2 Spike protein was 3.1 nM and 4.5 nM.

Regarding `CC[C@H](C)[C@H](NC(=O)[C@H](CC(C)C)NC(=O)[C@H](CC(=O)O)NC(=O)[C@H](CO)NC(=O)[C@@H](NC(=O)[C@H](CCCNC(=N)N)NC(=O)[C@H](CCSC)NC(=O)[C@H](CO)NC(=O)[C@H](C)NC(=O)[C@H](CCC(=O)O)NC(=O)[C@H](C)NC(=O)[C@H](Cc1c[nH]cn1)NC(=O)CNC(=O)[C@H](CC(C)C)NC(=O)[C@H](CCC(=O)O)NC(=O)[C@H](CC(=O)O)NC(=O)[C@H](CC(C)C)NC(=O)[C@H](CC(C)C)NC(=O)[C@H](CCCNC(=N)N)NC(=O)[C@H](CCSC)NC(=O)[C@@H](NC(=O)[C@H](CCC(=O)O)NC(=O)[C@H](Cc1ccc(O)cc1)NC(=O)[C@@H](NC(=O)[C@H](CCCCN)NC(=O)[C@H](CCC(N)=O)NC(=O)[C@H](CC(C)C)NC(=O)[C@@H](NC(=O)[C@H](Cc1c[nH]c2ccccc12)NC(=O)[C@H](CCC(=O)O)NC(=O)[C@H](CCCCN)NC(=O)[C@H](CC(=O)O)NC(C)=O)[C@@H](C)CC)[C@@H](C)CC)[C@@H](C)CC)C(C)C)C(=O)N[C@@H](Cc1ccc(O)cc1)C(=O)N[C@@H](CCC(=O)O)C(=O)N[C@@H](Cc1ccccc1)C(=O)N[C@@H](CCSC)C(=O)N[C@@H](CCCCN)C(=O)N[C@@H](CCCCN)C(=O)NCC(=O)NCCOCCOCCOCCOCCOCCOCCOCCOCCC(=O)NCCOCCOCCOCCOCCOCCOCCOCCOCCNC(=O)[C@@H]1CSCC(=O)N[C@@H](C)C(=O)N[C@@H](CO)C(=O)N[C@@H](Cc2ccc(O)cc2)C(=O)N[C@@H](Cc2c[nH]cn2)C(=O)N[C@@H](CC(C)C)C(=O)NCC(=O)N[C@@H](CCC(=O)O)C(=O)N[C@@H](CC(C)C)C(=O)N[C@@H](C(C)C)C(=O)N[C@@H](Cc2c[nH]c3ccccc23)C(=O)N2Cc3ccccc3C[C@H]2C(=O)NC(C)(C)C(=O)N1` [Compound 160], on SARS-CoV-2 Spike protein, the EC50 was 1.4 nM and 2.2 nM.

For the molecule `CC[C@H](C)[C@H](NC(=O)[C@H](CC(C)C)NC(=O)[C@H](CC(=O)O)NC(=O)[C@H](CO)NC(=O)[C@@H](NC(=O)[C@H](CCCNC(=N)N)NC(=O)[C@H](CCSC)NC(=O)[C@H](CO)NC(=O)[C@H](C)NC(=O)[C@H](CCC(=O)O)NC(=O)[C@H](C)NC(=O)[C@H](Cc1c[nH]cn1)NC(=O)CNC(=O)[C@H](CC(C)C)NC(=O)[C@H](CCC(=O)O)NC(=O)[C@H](CC(=O)O)NC(=O)[C@H](CC(C)C)NC(=O)[C@H](CC(C)C)NC(=O)[C@H](CCCNC(=N)N)NC(=O)[C@H](CCSC)NC(=O)[C@@H](NC(=O)[C@H](CCC(=O)O)NC(=O)[C@H](Cc1ccc(O)cc1)NC(=O)[C@@H](NC(=O)[C@H](CCCCN)NC(=O)[C@H](CCC(N)=O)NC(=O)[C@H](CC(C)C)NC(=O)[C@@H](NC(=O)[C@H](Cc1c[nH]c2ccccc12)NC(=O)[C@H](CCC(=O)O)NC(=O)[C@H](CCCCN)NC(=O)[C@H](CC(=O)O)NC(C)=O)[C@@H](C)CC)[C@@H](C)CC)[C@@H](C)CC)C(C)C)C(=O)N[C@@H](Cc1ccc(O)cc1)C(=O)N[C@@H](CCC(=O)O)C(=O)N[C@@H](Cc1ccccc1)C(=O)N[C@@H](CCSC)C(=O)N[C@@H](CCCCN)C(=O)N[C@@H](CCCCN)C(=O)NCC(=O)NCCOCCOCCOCCOCCOCCOCCOCCOCCNC(=O)[C@@H]1CSCC(=O)N[C@@H](C)C(=O)N[C@@H](CO)C(=O)N[C@@H](Cc2ccc(O)cc2)C(=O)N[C@@H](Cc2c[nH]cn2)C(=O)N[C@@H](CC(C)C)C(=O)NCC(=O)N[C@@H](CCC(=O)O)C(=O)N[C@@H](CC(C)C)C(=O)N[C@@H](C(C)C)C(=O)N[C@@H](Cc2c[nH]c3ccccc23)C(=O)N2Cc3ccccc3C[C@H]2C(=O)NC(C)(C)C(=O)N1` [Compound 161], at SARS-CoV-2 Spike protein, the EC50 stood at 2.2 nM.

Take `CC[C@H](C)[C@H](NC(=O)[C@H](CC(C)C)NC(=O)[C@H](CC(=O)O)NC(=O)[C@H](CO)NC(=O)[C@@H](NC(=O)[C@H](CCCNC(=N)N)NC(=O)[C@H](CCSC)NC(=O)[C@H](CO)NC(=O)[C@H](C)NC(=O)[C@H](CCC(=O)O)NC(=O)[C@H](C)NC(=O)[C@H](Cc1c[nH]cn1)NC(=O)CNC(=O)[C@H](CC(C)C)NC(=O)[C@H](CCC(=O)O)NC(=O)[C@H](CC(=O)O)NC(=O)[C@H](CC(C)C)NC(=O)[C@H](CC(C)C)NC(=O)[C@H](CCCNC(=N)N)NC(=O)[C@H](CCSC)NC(=O)[C@@H](NC(=O)[C@H](CCC(=O)O)NC(=O)[C@H](Cc1ccc(O)cc1)NC(=O)[C@@H](NC(=O)[C@H](CCCCN)NC(=O)[C@H](CCC(N)=O)NC(=O)[C@H](CC(C)C)NC(=O)[C@@H](NC(=O)[C@H](Cc1c[nH]c2ccccc12)NC(=O)[C@H](CCC(=O)O)NC(=O)[C@H](CCCCN)NC(=O)[C@H](CC(=O)O)NC(=O)CCOCCOCCOCCOCCNC(=O)CCCC[C@@H]1SC[C@@H]2NC(=O)N[C@@H]21)[C@@H](C)CC)[C@@H](C)CC)[C@@H](C)CC)C(C)C)C(=O)N[C@@H](Cc1ccc(O)cc1)C(=O)N[C@@H](CCC(=O)O)C(=O)N[C@@H](Cc1ccccc1)C(=O)N[C@@H](CCSC)C(=O)N[C@@H](CCCCN)C(=O)N[C@@H](CCCCN)C(=O)NCC(=O)O` [Compound 209]: the EC50 at SARS-CoV-2 Spike protein is 1.1 nM.
